Measurements published in the NIST ThermoML archive (doi:10.1016/j.tca.2006.04.016).

Experiment: xn = mol fraction of the nth substance listed
Details: 101 kPa, Liquid, Vibrating tube method

CN(C)CCCN [N,N-dimethyl-1,3-propanediamine] + O
mass density [kg/m3]
Details | 318.15 K | 323.15 K | 328.15 K | 333.15 K | 338.15 K | 343.15 K | 348.15 K | 353.15 K
x2 = 0 | – | 790.41 | 785.91 | 781.39 | 776.85 | 772.29 | 767.7 | 763.1
x2 = 0.0403 | – | 793.5 | 789 | 784.47 | 779.92 | 775.35 | 770.76 | 766.14
x2 = 0.0811 | – | 796.65 | 792.14 | 787.61 | 783.06 | 778.48 | 773.88 | 769.25
x2 = 0.1198 | – | 799.82 | 795.31 | 790.78 | 786.22 | 781.64 | 777.03 | 772.39
x2 = 0.16 | – | 803.3 | 798.79 | 794.25 | 789.69 | 785.1 | 780.49 | 775.84
x2 = 0.1996 | – | 806.9 | 802.39 | 797.86 | 793.3 | 788.71 | 784.09 | 779.43
x2 = 0.2498 | – | 811.82 | 807.31 | 802.78 | 798.22 | 793.62 | 788.99 | 784.32
x2 = 0.2998 | – | 817.12 | 812.62 | 808.09 | 803.53 | 798.93 | 794.3 | 789.63
x2 = 0.3499 | – | 822.81 | 818.31 | 813.78 | 809.21 | 804.61 | 799.97 | 795.29
x2 = 0.3997 | – | 829.08 | 824.59 | 820.06 | 815.49 | 810.89 | 806.24 | 801.55
x2 = 0.4501 | – | 836.03 | 831.54 | 827.01 | 822.44 | 817.83 | 813.18 | 808.48
x2 = 0.4998 | – | 843.68 | 839.19 | 834.65 | 830.08 | 825.45 | 820.79 | 816.07
x2 = 0.5501 | – | 852.33 | 847.84 | 843.3 | 838.71 | 834.08 | 829.41 | 824.69
x2 = 0.5999 | 866.35 | 861.89 | 857.39 | 852.84 | 848.24 | 843.6 | 838.92 | 834.17
x2 = 0.6498 | 877.08 | 872.61 | 868.1 | 863.55 | 858.94 | 854.29 | 849.59 | 844.83
x2 = 0.7 | 889.3 | 884.83 | 880.31 | 875.74 | 871.13 | 866.47 | 861.76 | 857
x2 = 0.7499 | 902.82 | 898.36 | 893.85 | 889.3 | 884.69 | 880.03 | 875.32 | 870.56
x2 = 0.8 | 917.71 | 913.29 | 908.82 | 904.3 | 899.72 | 895.11 | 890.44 | 885.71
x2 = 0.84 | 930.55 | 926.21 | 921.82 | 917.39 | 912.9 | 908.37 | 903.78 | 899.14
x2 = 0.8799 | 943.86 | 939.69 | 935.48 | 931.22 | 926.91 | 922.56 | 918.14 | 913.67
x2 = 0.9 | 950.58 | 946.58 | 942.52 | 938.42 | 934.27 | 930.05 | 925.79 | 921.45
x2 = 0.92 | 957.27 | 953.52 | 949.71 | 945.84 | 941.89 | 937.89 | 933.81 | 929.67
x2 = 0.94 | 963.99 | 960.6 | 957.12 | 953.56 | 949.91 | 946.17 | 942.35 | 938.45
x2 = 0.9597 | 970.89 | 967.94 | 964.87 | 961.68 | 958.38 | 954.98 | 951.46 | 947.86
x2 = 0.975 | 976.98 | 974.39 | 971.65 | 968.78 | 965.78 | 962.66 | 959.41 | 956.07
x2 = 0.99 | 984.22 | 981.91 | 979.45 | 976.83 | 974.07 | 971.18 | 968.15 | 965.01
